Where two headings read alike, the source gives them in different places.
How the values were obtained:
B16-OVA tumor cells = assay: B16-OVA tumor model in mice; type: in vivo, mouse; conditions: for tumor sizes compared to control groups: 10 mg/kg IP once daily, 7 injections starting on day 10; for survival: with anti-PDL1 immunotherapy, mice harboring B16-OVA tumors
4T1 tumor cells = assay: 4T1 tumor model in mice; type: in vivo, mouse; conditions: 10 mg/kg IP once daily, 7 injections starting on day 6
AT-84-E7 tumors = type: in vivo, mouse; conditions: tumors which do not express E5
E5-positive AT-84-E7 = assay: Cell surface expression of MHC I (flow cytometry); type: cell-based
[1] = tested on: B16-OVA cells cocultured with B3Z cells; assay: B3Z activation assay; type: cell-based; conditions: 100 μM, 24 hours before B3Z co-culture
Method: B16-OVA cells are seeded into a 96-well plate and treated with 100 μM […], […] or racemic rimantadine for 24 hours, prior to addition of B3Z cells. After 24 hours of co-culture, medium is removed and 100 μl of lysis buffer [0.155 mM chlorophenol red β-D-galactopyranoside (CPRG) (Roche), 0.125% Nonidet P-40 Alternative (EMDCalbiochem), and 9 mM MgCl2 (Sigma) in PBS] are added. After incubation for 4 hours at 37° C., the absorbance at 570 nm is determined on a TECAN infinite M200 microplate reader.

T cells = assay: Proliferation of T cells; type: cell-based
Stathmin = assay: RTqPCR gene expression of cell cycle proteins; type: cell-based
Method: (§1) Total RNA is extracted using TRIzol Reagent (Invitrogen) and reverse transcribed with qScript cDNA Synthesis Kit (Quanta BioSciences, Beverly, MA) according to the manufacturer's instructions. Quantitative PCR analysis is conducted by using KAPA SYBR […] FAST (KAPA Biosystems, Wilmington, MA) on the 7900HT Fast Real-Time PCR System (Applied Biosystems, Foster City, CA).

Tau = assay: RTqPCR gene expression of cell cycle proteins; type: cell-based
Method: as §1

[2] = tested on: cell lines engineered to express HPV16 E5; assay: Cell cycle arrest in cell lines engineered to express HPV16 E5; type: cell-based, murine and human
Method: (§2) Cell cycle progression was analyzed on the basis of BrdU incorporation following […] cell staining with BrdU-APC and 7-AAD using BD Pharmingen BrdU Flow Kit. (BD, Franklin Lakes, NJ) according to the manufacture's protocol. Cells are analyzed using flow cytometry. Cell proliferation is assessed by using MTT [3-(4,5-dimethylthiazol-2-yl)-2,5-diphenyltetrazolium bromide]. First, cells are seeded in 96-well plate and cultured for 2-3 days. Next, culture media is replaced with fresh media containing 0.5 mg/ml of MTT (Sigma) and the plates are incubated for 4 hours at 37° C. Then, purple formazan crystals are dissolved in lysis buffer (4 mM HCl and 0.1% NP-40 in isopropanol) and the absorbance is recorded on a TECAN infiniteM200 microplate reader (Tecan, Mannedorf, Switzerland) at a wavelength of 570 nm with absorbance at 650 nm as reference.

[3] = tested on: glutamate, GABA, dopamine receptors
Source text: Next, a series of SPECT analyses as described in Schramm, N., et al. (2000).
The SPECT analyses comprise of treatment of the mice with radioligands specific to each receptor. For example, [^123I] IBZM has been documented to have a high affinity for the D2/3 dopamine receptor.

M2 channel pore = M2 channel pore (Influenza A virus, UniProt P06821); conditions: one study; other studies found no difference; cited from earlier work
CAL-27 cells = assay: Example 6 proliferation in vitro (MTT); type: cell-based, human; conditions: 0-500 μM, 24 or 48 hours
Method: On day 1, CAL-27 cells were seeded in a 96-well plate (2-4×10^3 cells/well, medium 100 μl/well) and left overnight to allow the cells to attach to the plate. On day 2, varying concentrations of rimantadine (0 μM, 100 μM, 250 μM, or 500 μM) were added to the cells and allowed to incubate for 24 hours or 48 hours. On either day 3 or 4, the culture media was aspirated, and 100 μl/well of MTT solution (comprising an MTT concentration of 0.5 mg/ml; formed by dilution of thiazolyl blue tetrazolium bromide solution (SIGMA, Cat #M2128) with stock solution (5 mg/ml in PBS (−20° C.)) was added to the culture media. The cells were incubated in a CO2 incubator at 37° C. for 3 hours, and the MTT solution was aspirated. 100 μl/well of DMSO was then added and the cells were incubated for about 5 minutes. A OD570 nm (Ref 650 nm) was then read. Results of the experiment are shown in FIG. 2.

[4] = biological target: NR1/NR2B ionotropic receptor (Homo sapiens, UniProt Q05586+Q13224); assay: ScreenPatch assay (IonWorks Barracuda electrophysiology) on NR1/NR2B; conditions: refers to Table 2
NMDA receptors = assay: ScreenPatch two-application protocol, agonist and antagonist format; type: cell-based, human; conditions: first application; data not shown
Method: A two-application protocol was employed.
Agonist Format: The potential agonist effect of the test articles and the positive control antagonist, amantadine, were examined during first application.
To access open channel block type of inhibition, peak and steady state current amplitudes (between 4th and 5th seconds after agonist application) were measured (PCA and SSC respectively).

D2/3 dopamine receptor = conditions: documented; cited from earlier work
[5] = tested on: CAL-27, CAL-33, and SCC-47 squamous cell carcinoma cell lines; assay: BrdU incorporation assays in human head and neck tumor lines; type: cell-based; conditions: rimantadine alone; CAL-27, CAL-33, SCC-47
Method: as §2

[6] = tested on: CAL-27, CAL-33, and SCC-47 squamous cell carcinoma cell lines; assay: Proliferation assays in human head and neck tumor lines; type: cell-based; conditions: rimantadine alone; CAL-27, CAL-33, SCC-47
Method: as §2

Chain of M2 channel pore (P06821 whole entry): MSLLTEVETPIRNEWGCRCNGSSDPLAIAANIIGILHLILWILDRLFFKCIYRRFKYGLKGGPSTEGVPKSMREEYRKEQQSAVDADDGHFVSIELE
Chain of NR1/NR2B ionotropic receptor (Q13224 27-1484, other chains not shown): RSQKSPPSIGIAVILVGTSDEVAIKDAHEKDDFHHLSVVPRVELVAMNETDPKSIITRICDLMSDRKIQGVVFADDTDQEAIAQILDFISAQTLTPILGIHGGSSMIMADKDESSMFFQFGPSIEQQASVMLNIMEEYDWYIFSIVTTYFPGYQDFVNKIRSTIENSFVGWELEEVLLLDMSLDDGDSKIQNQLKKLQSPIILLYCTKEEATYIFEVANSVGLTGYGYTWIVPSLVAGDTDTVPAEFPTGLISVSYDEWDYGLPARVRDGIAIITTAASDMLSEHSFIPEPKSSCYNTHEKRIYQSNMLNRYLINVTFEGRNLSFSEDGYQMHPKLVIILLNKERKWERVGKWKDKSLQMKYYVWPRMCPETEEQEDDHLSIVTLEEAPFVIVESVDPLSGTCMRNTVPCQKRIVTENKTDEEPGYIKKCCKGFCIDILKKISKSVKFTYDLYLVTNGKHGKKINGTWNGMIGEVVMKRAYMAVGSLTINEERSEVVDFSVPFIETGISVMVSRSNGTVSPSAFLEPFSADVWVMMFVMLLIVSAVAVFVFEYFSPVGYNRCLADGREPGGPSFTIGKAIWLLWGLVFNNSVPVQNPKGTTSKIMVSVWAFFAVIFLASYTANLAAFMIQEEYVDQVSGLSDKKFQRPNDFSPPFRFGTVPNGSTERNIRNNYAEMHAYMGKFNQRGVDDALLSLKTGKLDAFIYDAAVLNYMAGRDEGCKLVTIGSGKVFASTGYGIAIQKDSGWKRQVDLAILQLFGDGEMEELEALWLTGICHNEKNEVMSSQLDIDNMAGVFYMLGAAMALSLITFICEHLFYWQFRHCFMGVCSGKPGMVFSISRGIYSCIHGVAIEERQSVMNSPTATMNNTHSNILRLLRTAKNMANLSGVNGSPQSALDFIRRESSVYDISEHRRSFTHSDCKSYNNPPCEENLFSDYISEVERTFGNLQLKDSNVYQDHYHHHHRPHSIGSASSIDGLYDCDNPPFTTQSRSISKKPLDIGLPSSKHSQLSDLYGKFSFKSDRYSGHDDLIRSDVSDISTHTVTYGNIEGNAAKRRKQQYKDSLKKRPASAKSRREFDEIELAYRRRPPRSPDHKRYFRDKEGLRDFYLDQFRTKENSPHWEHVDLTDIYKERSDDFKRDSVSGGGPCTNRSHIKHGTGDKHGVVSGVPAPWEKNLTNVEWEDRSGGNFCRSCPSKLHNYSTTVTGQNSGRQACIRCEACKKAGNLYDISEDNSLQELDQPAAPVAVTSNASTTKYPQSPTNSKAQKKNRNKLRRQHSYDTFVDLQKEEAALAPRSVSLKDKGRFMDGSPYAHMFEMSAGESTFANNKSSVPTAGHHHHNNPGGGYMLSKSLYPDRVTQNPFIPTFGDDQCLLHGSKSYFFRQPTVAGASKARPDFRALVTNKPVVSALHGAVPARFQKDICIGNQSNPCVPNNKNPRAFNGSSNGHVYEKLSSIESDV

SMILES	tumor sizes compared to control groups (B16-OVA tumor cells)	survival (B16-OVA tumor cells)	tumor sizes compared to control groups (4T1 tumor cells)	anti-tumor effect (AT-84-E7 tumors)	cell surface expression of MHC I (E5-positive AT-84-E7)	increase in recognition of model tumor antigen by B3Z cells [1] [fold]	proliferation of T cells (T cells)	gene expression of Stathmin (Stathmin)	gene expression of Tau (Tau)	cell cycle arrest [2]	also measured
C[C@@H](N)C12CC3CC(CC(C3)C1)C2 [2-R rimantadine]	statistically significant decreases	significant improvement	statistically significant decreases	decreased	restored	3	no significant effects	significant decreases	Decreases	induce cell cycle arrest	incidence of central nervous system adverse effects, compared with the other enantiomer ([3]; Example 4): higher incidence; affinity for M2 channel pore compared with the S-enantiomer (M2 channel pore): greater affinity
C[C@H](N)C12CC3CC(CC(C3)C1)C2 [2-S rimantadine]	statistically significant decreases	significant improvement	statistically significant decreases	decreased	restored	3	no significant effects	significant decreases	Decreases	induce cell cycle arrest	toxicity as a treatment for cancer as compared to 2-R rimantadine ([3]; Example 4): significantly less toxic; incidence of central nervous system adverse effects, compared with the other enantiomer ([3]; Example 5): higher incidence; toxicity as a treatment for cancer as compared to 2-R rimantadine ([3]; Example 5): significantly less toxic; cancer cell proliferation as compared to R-rimantadine or racemic rimantadine (CAL-27 cells): enhanced or equivalent; inhibition of NR2B subunits as compared to 2-R rimantadine and racemic rimantadine [4]: to a lesser degree
NC12CC3CC(CC(C3)C1)C2 [Amantadine, amantadine]											agonist effect: activation of NMDA receptors (NMDA receptors): Neither test articles nor amantadine had produced significant activation
CCN1CCC[C@H]1CNC(=O)c1c(OC)ccc([123I])c1O [[^123I] IBZM]											affinity for the D2/3 dopamine receptor (D2/3 dopamine receptor): high affinity
CC(N)C12CC3CC(CC(C3)C1)C2 (stereo not shown) [rimantadine]											cell cycle arrest [5]: Significant cell cycle arrest; proliferation [6]: decreased

— US20240226036A1 (Toragen, Inc., priority 2021, published 2024)
